Data set [1] deals with T1, human 5-HT1A receptor (Homo sapiens, UniProt P08908).
T1 construct: expressed in transfected cells; host or cells: CHO cells (stably transfected)
T1 sequence (P08908 1-422): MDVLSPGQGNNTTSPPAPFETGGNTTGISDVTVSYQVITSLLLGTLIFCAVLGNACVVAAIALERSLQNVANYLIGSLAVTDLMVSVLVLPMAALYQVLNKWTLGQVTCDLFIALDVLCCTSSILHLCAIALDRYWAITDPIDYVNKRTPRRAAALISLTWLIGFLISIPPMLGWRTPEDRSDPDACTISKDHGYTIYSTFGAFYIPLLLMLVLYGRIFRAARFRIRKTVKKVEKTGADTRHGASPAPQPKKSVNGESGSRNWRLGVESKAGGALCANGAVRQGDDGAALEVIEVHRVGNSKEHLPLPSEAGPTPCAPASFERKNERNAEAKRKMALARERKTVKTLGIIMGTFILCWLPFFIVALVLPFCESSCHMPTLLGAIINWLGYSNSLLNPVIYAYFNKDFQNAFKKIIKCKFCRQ
Put plainly: Serotonin 5-HT1A binding, displacement of [3H]8-OH-DPAT. Conditions: [3H]8-OH-DPAT displacement, CHO cells stably transfected with human 5-HT1A receptor. An excerpt: Affinity for the serotonin 5-HT1A receptor was established by assaying the test compound's ability to displace [^3H]8-OH-DPAT from its binding site on the receptor complex in CHO cells stably transfected with the human 5-HT1A receptor following the procedure described by Dunlop et al., J. PharmacoL ToxicoL Methods 1998, 40, 47.
In general terms: In a radioligand displacement assay an active substance lowers the binding of a labelled ligand.

The target of data set [2] is T1, human 5-HT1A receptor. Put plainly: Antagonism of 8-OH-DPAT inhibition of forskolin-stimulated cyclic-AMP turnover in transfected CHO cells. The class given is cell-based. Conditions: CHO cells with human 5-HT1A receptor, read-out: cAMP IC50.
For data set [3] the following is noted: animal models; cited from earlier work.
For data set [4] the following is noted: in vivo; cited from earlier work.
Another data set concerns marmosets. Conditions: cited from earlier work.
The conditions of data set [5]: cited from earlier work.
Another data set deals with PC3. Conditions: PC3, in vitro; cited from earlier work.
The test system of another data set is LNCaP. The following applies: in vitro; cited from earlier work.
For a further data set, the system named is PC3 cell line. Conditions: athymic nude mice; cited from earlier work.
Another data set relates to DU-145. The following applies: DU-145, in vitro; cited from earlier work.

Where a name gives a salt, the structure may show the parent alone. Read-outs that look alike come from different tables or passages of the source.

By melting point is commonly meant the temperature, or range, at which the solid turns liquid. The Ki is the equilibrium dissociation constant of an inhibitor or competing ligand from its target. Lower therefore signals tighter binding. As a reminder, the IC50 is the concentration at which inhibition is half-maximal.

For the compound `C[C@H](CN(C(=O)[C@H]1CC2CCC1CC2)c1ccccn1)N1CCN(c2cccc3[nH]ccc23)CC1` (as salt: hydrochloride) [Example 1, (S)-N-{(2R)-2-[4-(1H-Indol-4-yl)piperazin-1-yl]propyl}-N-pyridin-2-yl-bicyclo[2.2.2]octane-2-carboxamide], the melting point lay in the range of 180 to 182 °C.

On to `C[C@H](CN(C(=O)C1C2CCC1CC2)c1ccccn1)N1CCN(c2cccc3[nH]ccc23)CC1` (stereo partly drawn) (as salt: hydrochloride) [Example 3, N-{(2R)-2-[4-(1H-Indol-4-yl)piperazin-1-yl]propyl}-N-pyridin-2-yl-bicyclo[2.2.1]heptane-7-carboxamide], for which the melting point is 176 to 179 °C.

`C[C@H](CN(C(=O)C1(C)C2CCC1CC2)c1ccccn1)N1CCN(c2cccc3[nH]ccc23)CC1` (stereo partly drawn) (as salt: hydrochloride) [Example 4, N-{(2R)-2-[4-(1H-indol-4-yl)piperazin-1-yl]propyl}-7-methyl-N-pyridin-2-yl-bicyclo[2.2.1]heptane-7-carboxamide] displayed a melting point of 236 to 238 °C.

Turning to `C[C@H](CN(C(=O)[C@H]1CC2CCC1CC2)c1ccccn1)N1CCN(c2cccc3[nH]ccc23)CC1` [Example 1, (S)-N-{(2R)-2-[4-(1H-Indol-4-yl)piperazin-1-yl]propyl}-N-pyridin-2-yl-bicyclo[2.2.2]octane-2-carboxamide], at human 5-HT1A receptor [1], the Ki came out at 0.68 nM. Besides, on human 5-HT1A receptor [2], the IC50 is 4.1 nM.

The compound `C[C@H](CN(C(=O)[C@@H]1CC2CCC1CC2)c1ccccn1)N1CCN(c2cccc3[nH]ccc23)CC1` [Example 2, (R)-N-[(2R)-2-[4-(1H-Indol-4-yl)-1-piperazinyl]propyl]-N-2-pyridin-2-yl-bicyclo[2.2.2]octane-2-carboxamide] had a Ki on human 5-HT1A receptor [1] of 0.69 nM. Besides, the IC50 on human 5-HT1A receptor [2] amounted to 2.2 nM.

Regarding `C[C@H](CN(C(=O)C1C2CCC1CC2)c1ccccn1)N1CCN(c2cccc3[nH]ccc23)CC1` (stereo partly drawn) [Example 3, N-{(2R)-2-[4-(1H-Indol-4-yl)piperazin-1-yl]propyl}-N-pyridin-2-yl-bicyclo[2.2.1]heptane-7-carboxamide], at human 5-HT1A receptor [1], the Ki is 0.98 nM. For the same compound, the IC50 at human 5-HT1A receptor [2] was found to be 74.5 nM.

Turning to `C[C@H](CN(C(=O)C1(C)C2CCC1CC2)c1ccccn1)N1CCN(c2cccc3[nH]ccc23)CC1` (stereo partly drawn) [Example 4, N-{(2R)-2-[4-(1H-indol-4-yl)piperazin-1-yl]propyl}-7-methyl-N-pyridin-2-yl-bicyclo[2.2.1]heptane-7-carboxamide], the Ki on human 5-HT1A receptor [1] amounted to 0.45 nM. Also, at human 5-HT1A receptor [2], the IC50 stood at 6.7 nM.

On to `OC(CNC1CCCCC1)COc1cccc2[nH]ccc12` (centres unmarked) [LY206130], for which the “anxiogenic behaviors induced by nicotine withdrawal” value (“anxiogenic behaviors induced” below) in data set [3] is “blocked”.

Turning to `COc1ccccc1N1CCN(CC[C@](C)(C(=O)C2CCCCC2)c2ccccc2)CC1` [LY 426965], the “anxiogenic behaviors induced” value in data set [3] is “blocked”.

In the case of `COc1ccccc1N1CCN(CCCCN2C(=O)c3ccccc3C2=O)CC1` [NAN-190], in data set [3], the “anxiogenic behaviors induced” value is on record as “blocked”.

`COc1ccccc1N1CCN(CC(C(=O)NC(C)(C)C)c2ccccc2)CC1` (centres unmarked) [WAY-100135]: in data set [4], the “impairment of spatial learning caused by intrahippocampal scopolamine” value is “prevented the impairment of spatial learning”.

`COc1ccccc1N1CCN(CCN(C(=O)C2CCCCC2)c2ccccn2)CC1` [WAY-100635]: the “anxiogenic behaviors induced” value in data set [3] is “blocked”. For the same compound, the “cognitive deficits induced by fomix lesions” value with marmosets is given as “reversed the cognitive deficits”.

With `CC(C)NCC(O)COc1cccc2[nH]ccc12` (centres unmarked) [pindolol], the “median time needed to achieve a sustained antidepressant response” value in [5] (co-administered with the SSRI fluoxetine) and in [5] (co-administered with the SSRI paroxetine) was “significantly reduced the median time” each time.

pindobind: the antineoplastic activity entry in the data set with PC3, in the data set on LNCaP and with DU-145 was “antineoplastic activity” each time. Besides, in the data set on PC3 cell line, the “growth of the PC3 cell line in vivo” value is recorded as “inhibited the growth”.

The record behind these values is US7179813B2, “Bicyclic indolyl derivatives and methods for their use as serotonergic agents” (Wyeth, priority 2003, dated 2007).
